Experimental data reported in patent US5922545A, “In vitro peptide and antibody display libraries” (Affymax Technologies N.V., priority 1997, dated 1999).

How the values were obtained:
[1] = system: peptidyl transferase activity of 50S ribosomal subunits; details: cited from earlier work
[2] = target: mAb D32.39; experiment: competition binding assay of synthesized peptides for mAb D32.39; details: 50 pM tracer peptide containing the D32.39 epitope sequence, IC50 should approximate the Kd, read-out: binding affinity for mAb D32.39 (IC50)
Text: FIG. 6. (SEQ. ID NO: 50-74) Amino acid alignment of selected peptide sequences with dynorphin B. The six-residue D32.39 epitope sequence of dynorphin B and the peptide regions similar to it are shown in the box. A total of 6, 13, 19, and 9 independent clones were sequenced from rounds 2, 3, 4 and 5, respectively. The frequency indicates the number of times each sequence occurred among the clones isolated from each round, and the asterisks indicate identical sequences found in different rounds. Binding affinities for D32.39 were determined by chemically synthesizing the indicated peptide sequences and measuring the IC50 as described in the Experimental Examples.
Peptides were synthesized with an Applied Biosystems model 431A peptide synthesizer using Fmoc-protected amino acids. The peptides were purified to greater than 90% purity by HPLC and confirmed by mass spectroscopy. The competition binding assay was performed and included a low concentration (50 pM) of the tracer peptide containing the D32.39 epitope sequence.
Peptides corresponding to some of the enriched sequences were chemically synthesized, purified and their identity confirmed by mass spectrometry. A competition binding assay was used to estimate their affinity for the mAb D32.39 and under the conditions of the assays the IC50 value should approximate the Kd. […]

[3] = system: mAb D32.39; experiment: competition binding of radiolabelled polysomes to immobilized mAb D32.39; details: wells preincubated with 10 μH dynorphin B peptide for 1 hr at 4° C.
Protocol: FIG. 2. Specific binding of polysomes to mAb D32.39. Radiolabelled polysomes were isolated from reactions programmed with 1.5 μg of HindIII-linearized plasmid pLM138 or pLM142 and bound to microtiter wells containing the immobilized mAb. The recovered mIRNA was quantitated by TCA precipitation. (Panel A) Binding of polysomes containing the D32.39 epitope (closed boxes) or control (open boxes) sequences. (Panel B) Competition binding assay. Microtiter wells were preincubated with polysome buffer in the absence or presence of 10 μH dynorphin B peptide for 1 hr at 4° C. prior to adding 131,000 cpm of polysomes containing the D32.39 epitope (RQFKVVT) (SEQ ID NO:18) or control (VFKRTVQ) (SEQ ID NO:15) sequences.
Dynal beads were prepared according to the manufacturer. Microtiter wells were prepared for polysome binding by incubating each well with mAb D32.39 (5 μg per well) in PBS (10 mM sodium phosphate pH 7.4/120 mM NaCl/2.7 mM KCl) for 1 hr at 37° C., washing with PBS, blocking with PBS/1% nonfat milk for 1 hr at 37° C. and washing again with polysome buffer. Polysomes, as indicated, were incubated with the antibody for 2 hr at 4° C. […]
Specific Binding of Polysomes to mAb D32.39. The fraction of polysomes capable of binding specifically to mAb D32.39 via the nascent peptide was determined. […]

[4] = target: iron response element (IRE); details: binds as a monomer; read-out: dissociation constant; cited from earlier work

MSTSKNAD [cmlA 8-mer peptide]
inhibitory activity relative to chloramphenicol ([1]; as inhibitory as chloramphenicol): about 50%
inhibitory activity relative to the cat 5-mer ([1]; more inhibitory than the cat 5-mer): about 5 fold

dynorphin B
IC50 [2]: 0.29 nM
blocking of binding of D32.39 epitope polysomes to mAb D32.39 [3]: binding was blocked

B1: IREBP: iron response element binding protein (98.4 kDal), RNA-binding protein (protein, UniProt P21399 1-889, looked up)
Cytoplasmic aconitate …: MSNPFAHLAEPLDPVQPGKKFFNLNKLEDSRYGRLPFSIRVLLEAAIRNCDEFLVKKQDIENILHWNVTQHKNIEVPFKPARVILQDFTGVPAVVDFAAMRDAVKKLGGDPEKINPVCPADLVIDHSIQVDFNRRADSLQKNQDLEFERNRERFEFLKWGSQAFHNMRIIPPGSGIIHQVNLEYLARVVFDQDGYYYPDSLVGTDSHTTMIDGLGILGWGVGGIEAEAVMLGQPISMVLPQVIGYRLMGKPHPLVTSTDIVLTITKHLRQVGVVGKFVEFFGPGVAQLSIADRATIANMCPEYGATAAFFPVDEVSITYLVQTGRDEEKLKYIKKYLQAVGMFRDFNDPSQDPDFTQVVELDLKTVVPCCSGPKRPQDKVAVSDMKKDFESCLGAKQGFKGFQVAPEHHNDHKTFIYDNTEFTLAHGSVVIAAITSCTNTSNPSVMLGAGLLAKKAVDAGLNVMPYIKTSLSPGSGVVTYYLQESGVMPYLSQLGFDVVGYGCMTCIGNSGPLPEPVVEAITQGDLVAVGVLSGNRNFEGRVHPNTRANYLASPPLVIAYAIAGTIRIDFEKEPLGVNAKGQQVFLKDIWPTRDEIQAVERQYVIPGMFKEVYQKIETVNESWNALATPSDKLFFWNSKSTYIKSPPFFENLTLDLQPPKSIVDAYVLLNLGDSVTTDHISPAGNIARNSPAARYLTNRGLTPREFNSYGSRRGNDAVMARGTFANIRLLNRFLNKQAPQTIHLPSGEILDVFDAAERYQQAGLPLIVLAGKEYGAGSSRDWAAKGPFLLGIKAVLAESYERIHRSNLVGMGVIPLEYLPGENADALGLTGQERYTIIIPENLKPQMKVQVKLDTGKTFQAVMRFDTDVELTYFLNGGILNYMIRKMAK
Kd [4]: 0.02 to 0.05 nM
